Holding throughout (format): in vivo
Data set [1] concerns Blattella germanica (males, susceptible). The experiment in a line: Efficacy of EC formulations on glazed/unglazed tiles, continuous exposure. The settings on record: 0.02% = 10 mg Ethiprole/m^2 on glazed tiles, EC formulation. The procedure: All surfaces were provided with talcum-coated glass rings (diameter 9.5 cm, height 5.5 cm) one day later.
The test insects were anesthetized with CO2, 20 individuals were placed onto the treated surfaces and the glass ring was covered with wire gauze ring. […]
Each test consisted of at least one replicate and any additional replicates are noted. […]
Test Insects: Culex quinquefasciatus (adults, susceptible) (3 minutes exposure time according to USDA Petri Dish Method), Musca domestica (adults, susceptible and resistant), Blattella germanica (males, susceptible) (both: continuous exposure time)
Formulations: Insecticide with or without 10% Compound A (as EC), to be diluted with water (1 part formulation+9 parts water)
Application: 1 ml of the diluted formulations was applied by pipette onto glazed tiles (15×15 cm)
Evaluation: Knock down after 3, 9 (mosquitoes only), 15, and 30 minutes, 1, 2, 3, 4 and 24 hours (mortality)

Data set [2] deals with susceptible/normal German cockroach (Monheim strain), Blattella germanica. Briefly: Knockdown/mortality of male cockroaches under continuous exposure on treated glazed tile. As to conditions: ethiprole 0.01% in the absence of the adjuvant (FIG. 55). Summed up: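 Male cockroaches continuously exposed on treated glazed tile, dried overnight before exposure; at least three replicates. Knockdown/mortality scored at intervals from 5 or 10 min, over runs lasting 20 min to 24 h depending on test.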

Data set [3] concerns tropical house mosquito Culex quinquefasciatus (adults, 3 days old). The experiment in a line: Efficacy of formulations on surfaces (glazed/unglazed tiles, plywood), ten 3 day old mosquitoes, 3 min exposure. As to conditions: 0.02% = 10 mg Ethiprole/m^2 on glazed tiles; EC formulation; 3 minutes exposure. Summed up: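 Test agents in acetone, 1 ml pipetted onto 15×15 cm glazed tiles (plywood/unglazed tiles also used; 1 cm edge untreated). USDA Petri Dish Method: ten 3-day-old adults held 3 min under a perforated dish, then given a water-soaked cotton pad. Knock-down scored 3 min–4 h, mortality at 24 h; mean of three batches.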

SMILES strings stand for the structures.

In the case of `CC[S+]([O-])c1c(C#N)nn(-c2c(Cl)cc(C(F)(F)F)cc2Cl)c1N` (centres unmarked) [ethiprole], in data set [1], the “% KD and Mortality 15′” value was determined as 0%; the “% KD and Mortality 30′” value was found to be 0%; the “% KD and Mortality 1 h” value is 0%; the “% KD and Mortality 2 h” value came to 80%. Moreover, in data set [1], the “% KD and Mortality 3 h” value was 100%; the “% KD and Mortality 4 h” value was 100%; the “% KD and Mortality 6 h” value was 100%; the “% KD and Mortality 24 h” value is reported as 100%. In addition, the “mortality from 5 to 25 hours” value in data set [2] is on record as 5-15%. Also, in data set [3], the “% KD and Mortality 15′” value is on record as 0%; the “% KD and Mortality 30′” value is given as 0%; the “% KD and Mortality 1 h” value is 0%; the “% KD and Mortality 2 h” value worked out at 10%. Besides, in data set [3], the “% KD and Mortality 3 h” value was determined as 10%; the “% KD and Mortality 4 h” value came to 10%; the “% KD and Mortality 6 h” value is on record as 10%; the “% KD and Mortality 24 h” value is given as 60%.

The values are drawn from patent US9028856B2, “Synergistic pesticide compositions” (priority 2008, dated 2015).
